Experimental data: patent US11471509B2, “Compositions and methods relating to myomaker-induced muscle cell fusion” (The Board of Regents of the University of Texas System, priority 2013, dated 2022)
Entries after “also recorded” stand apart in the source; their conditions may differ.

Tests used:
C2C12 myoblasts = assay: C2C12 myoblast fusion in the presence of actin inhibitors; assay type: cell-based; conditions: C2C12 cells infected with GFP or Myomaker virus, Cytochalasin D 0.3 μM, lantrunculin B 0.1 μM
[1] = at 78 weeks, cited from earlier work
[2] = cited from earlier work
[3] = infantile-onset Pompe disease, compared to untreated historical control population

With C=C1[C@@H](C)[C@H]2[C@H](Cc3ccccc3)NC(=O)[C@]23[C@H](OC(C)=O)/C=C/[C@@](C)(O)C(=O)[C@@H](C)C/C=C/[C@H]3[C@@H]1O [cytochalasin D] the myoblast fusion (C2C12 myoblasts) was “completely blocked fusion; also recorded: abolished”.

For C/C1=C/C(=O)O[C@@H]2C[C@@H](CC[C@H](C)/C=C\CC1)O[C@@](O)([C@@H]1CSC(=O)N1)C2 [lantrunculin B, latrunculin B], the myoblast fusion (C2C12 myoblasts) was “completely blocked fusion” and the myoblast fusion (C2C12 myoblasts; listed as latrunculin B) was “abolished”.

For alglucosidase alfa [Myozyme], the “increase in percent predicted forced vital capacity” value ([1]; P=0.006 vs placebo) is listed as 1.2%, the “increase in distance walked in six minutes” value ([1]; average, every other week for 18 months, baseline approximately 325 meters, P=0.03 vs placebo) is listed as “approximately 25 meters” and the overall survival [2, 3] is listed as “clearly prolongs”. The ventilator-free survival [2, 3] was “clearly prolongs” and the side effects ([2]; intravenous infusion) was “fever, flushing, skin rash, increased heart rate and even shock”.
